For 69 molecules, AC50 results are on record in article PMC7822874, “Chemoprotective antimalarials identified through quantitative high-throughput screening of Plasmodium blood and liver stage parasites” (Scientific Reports, 2021).

For orientation: AC50 means the concentration giving half of the maximal activity seen.

One test deals with Plasmodium falciparum Dd2 asexual blood stage parasites. Nature of the test: microbe, parasite or virus in culture. On the set-up: species or system Plasmodium falciparum Dd2 in human erythrocytes; single determination (one 11-point concentration-response curve). Particulars: Plasmodium falciparum, DD2, Erythrocyte, 72 h.
Take `O=C(c1cccs1)c1cn(CCOc2ccc(Cl)cc2)c2ccccc12` [NCGC00101601-01]: the AC50 was found to be 5.96 µM.

Staying with this test, now noted: Plasmodium falciparum, DD2, Erythrocyte, 72 h; read-out: AC50.
Consider `CCc1ccc(Oc2c(C(F)(F)F)oc3c(CN4CCN(C)CC4)c(O)ccc3c2=O)cc1` [NCGC00101488-01], for which the AC50 turned out to be 0.75 µM. As to `CC(C)[S+](=O)([O-])N1CCC(N2CC(OCC3CC3)C23CCCCC3)CC1` (stereo not drawn) [NCGC00463417-01], the AC50 turned out to be 15 µM. With `O=C(c1ccccc1OCC1CCCN(Cc2ccncc2F)C1)N1CCCCC1` (stereo not drawn) [NCGC00427046-01], the AC50 was 10.6 µM. For `COc1ccc2cc1Nc1ccc(cc1)C[C@H](NCc1ccc3c(c1)CCO3)C(=O)N(C)[C@H](C(=O)NCCC(C)C)C2` [NCGC00410296-01], the concentration at half-maximal activity (AC50) amounted to 3.35 µM.

For the molecule `CCOC(=O)c1cc(C)n(CC2CCC(C(=O)Nc3cccc(Cl)c3)CC2)c1C` (stereo not drawn) [NCGC00141645-01], the concentration at half-maximal activity (AC50) amounted to 8.41 µM. As to `CC1(c2ccccc2)N(Cc2ccccc2F)C(=O)OC12CCN(Cc1cccc(O)c1)CC2` (stereo not drawn) [NCGC00415649-01], the AC50 was 6.68 µM. For the molecule `COc1ccc(CCNc2nc3cc(OC)c(OC)cc3c3nc(-c4ccccc4)nn23)cc1OC` [NCGC00112847-01], the AC50 worked out at 2.37 µM. In the case of `Cc1ccccc1NC(=O)c1c(C)oc2ccc(O)c(CN(C)Cc3ccccc3)c12` [NCGC00115709-01], the half-maximal activity concentration (AC50) came to 2.37 µM. Still for that read-out and setting: with `Cc1cc(NC(=O)c2cc(-c3ccco3)on2)nn1Cc1ccc(Cl)cc1` [MLS000087231-01] the figure was 8.41 µM; with `COc1cc(-c2nc(-c3c(C)noc3C)cc3c2cc(C)n3CCN(C)C)ccn1` [NCGC00417201-01], 17.2 µM; with `CCOC(=O)N1CCc2c(sc3c2c(=O)n(Cc2ccccc2)c(=O)n3Cc2ccccc2Cl)C1` [NCGC00111943-01], 4.73 µM. Same read-out and setting: as for `CC(C)c1ccc(CC(=O)N2CCCc3ncc(C(=O)NCCc4c[nH]c5ccccc45)cc32)cc1` [NCGC00420032-01], the figure is 15 µM. As for `O=c1nc(C2CCCN(CC3CCCCC3)C2)[nH]n1-c1ccc(Cl)cc1` (stereo not drawn) [NCGC00477729-01], the AC50 stood at 6.68 µM. Still for that read-out and setting: with `CCCCn1c(NS(=O)(=O)c2ccccc2)c(C(=O)OCC)c2nc3ccccc3nc21` [MLS000589117-01] the figure was 10.6 µM.

Turning to `O=C(NC[C@H]1C[C@@H]2CC[N@]1C[C@@H]2CN1CCC(Cc2ccccc2)CC1)c1ccccc1` [NCGC00421103-01], the AC50 amounted to 7.69 µM. Regarding `COc1cccc(C(=O)N2CCC(N3C[C@H](O)C[C@H]3C(=O)N3CCc4ccccc4C3)CC2)c1` [NCGC00460061-01], the AC50 was determined as 8.41 µM. As for `CC(C)n1cc(CN2CCCC23CCN(c2ccc(C(F)(F)F)cn2)CC3)cn1` [NCGC00442913-01], the half-maximal activity concentration (AC50) was 9.44 µM. On the same count and under the same terms, with `CCN(CC)C(=O)C[C@@H]1c2nc(NC(=O)c3cccc(F)c3)sc2C[C@@H]2[C@](C)(CO)[C@H](O)CC[C@]21C` [NCGC00394316-01] the figure was 9.44 µM. Consider `CC1=C[C@@H](CN2CCC[C@H]2CO)[C@H](C(C)C)C[C@H]1Cc1nnc(-c2ccc(N(C)C)cc2)o1` [NCGC00394794-01], for which the AC50 was found to be 13.3 µM.

For the molecule `COc1ccc(-c2csc3ncnc(N4CCN(S(=O)(=O)c5ccc(C(C)=O)cc5)CC4)c23)cc1` [MLS001160708-01], the AC50 was determined as 4.22 µM.

For the molecule `COc1ccc(NC(=O)c2nnn3c2CN(Cc2cccc(Cl)c2)C(=O)CC3)c(C)c1` [NCGC00415347-01], the AC50 was determined as 2.17 µM.

Consider `COc1ccc2cc1Nc1ccc(cc1)C[C@H](NC(=O)c1cc3ccccc3n1C)C(=O)N(C)[C@H](C(=O)NCCC(C)C)C2` [NCGC00410275-01], for which the concentration at half-maximal activity (AC50) was 10.6 µM.

Consider `CC(C)(C)Nc1nc(NC(C)(C)C)nc(-n2ccnc2)n1` [MLS000044025-01], for which the AC50 turned out to be 4.73 µM.

For the molecule `COc1ccc2nc3oc(C(=O)N4CC(C)CC(C)C4)cc3cc2c1` (stereo not drawn) [MLS000912759-01], the half-maximal activity concentration (AC50) turned out to be 8.41 µM. Same read-out and setting: with `COc1ccc(C(=O)N[C@@H]2CN(Cc3cccc(OC)c3)CCC[C@H]2O)cc1` [NCGC00401653-01] the figure was 10.9 µM; with `COC(=O)c1ccc2nc(CO[C@H]3CN(Cc4cn(C)c5ccccc45)C[C@H]3F)[nH]c2c1` [NCGC00392963-01], 13.3 µM; with `COc1ccc(Oc2c(C(F)(F)F)oc3c(CN4CCCC(C)C4)c(O)ccc3c2=O)cc1` (stereo not drawn) [NCGC00101510-01], 2.37 µM. Regarding `CCOC(=O)c1cnn(-c2ccc(C(=O)Nc3ccc(C(C)=O)cc3)cc2)c1N` [NCGC00137680-01], the half-maximal activity concentration (AC50) is 4.73 µM.

Regarding `Cc1[nH]c2ccc(OC(F)(F)F)cc2c1CCNCc1cccc([N+](=O)[O-])c1` [MLS001198398-01], the AC50 is 4.73 µM. The same measure, in the same setting: as for `Cc1ncc(CN2CCC(C(=O)Nc3ccc(-n4cccn4)cc3)CC2)s1` [MLS001101085-01], the figure is 4.73 µM. On the same count and under the same terms, with `COC1=CC(=O)C(=C(C)N/N=C(\S)NCCc2ccccc2)C=C1` [MLS001170945-01] the figure was 3.35 µM; with `Cc1ccc(/C=N/NC(=O)c2nnn(-c3nonc3N)c2-c2ccc3c(c2)OCO3)s1` [MLS001142659-01], 0.841 µM.

In the case of `COc1ccc2cc1Nc1ccc(cc1)C[C@H](NC(=O)c1ccc(Oc3ccccc3)cc1)C(=O)N(C)[C@@H](C(=O)Nc1ccccc1)C2` [NCGC00410310-01], the AC50 is 2.11 µM.

For the molecule `COc1cccc(Nc2ccc3c(n2)C(C)(C(=O)NC2CCC2)CN(C)C3)c1` (stereo not drawn) [NCGC00414508-01], the half-maximal activity concentration (AC50) stood at 15.3 µM.

For the molecule `CC(C)=NOC(=O)c1c(C)noc1-c1snnc1C` [MLS000834920-01], the half-maximal activity concentration (AC50) was 6.68 µM. Still for that read-out and setting: with `CCCOc1ccc(-c2nonc2NC(=O)c2cc(OC)c(OC)c(OC)c2)cc1OCCC` [NCGC00116043-01] the figure was 5.96 µM; with `Cc1ccccc1N(C)C1CN(Cc2ccc(C#N)cc2)C1` [NCGC00476680-01], 3.85 µM; with `O[C@]1(c2ccccc2)CCN(Cc2ccncc2)C[C@H]1N1CCCC1` [NCGC00442600-01], 9.44 µM.

In the case of `CN(C)c1cccc(Nc2cc3c(cn2)CN(Cc2ccccc2)CCN3)c1` [NCGC00411230-01], the AC50 was 13.7 µM.

Consider `CC(C)CCN1CCn2c(nn(-c3ccc([N+](=O)[O-])cc3)c2=O)C1` [NCGC00479600-01], for which the AC50 was found to be 17.2 µM. Same read-out and setting: as for `COc1cc(C)ccc1OCCSc1nc2ccc(NC(=O)c3ccc(F)cc3)cc2s1` [NCGC00118562-01], the figure is 10.6 µM; as for `CCOC(=O)c1cc(-c2ccc(OC)cc2)n(CCC(=O)Nc2cccc(C(C)=O)c2)c1C` [NCGC00140940-01], 0.211 µM.

In the case of `CCOC(=O)c1c(C)[nH]c(C)c1[S+](=O)([O-])N1CCCC(C(=O)N2CCN(c3cccc(C)c3C)CC2)C1` (stereo not drawn) [NCGC00138103-01], the concentration at half-maximal activity (AC50) came to 1.33 µM. Regarding `COc1ccc(C)cc1-n1c(-c2ccc(Cl)cc2)cc2c1CC(C)(C)CC2=O` [NCGC00110344-01], the AC50 is 2.99 µM. The same measure, in the same setting: with `COc1cccc(CN2CCc3c(cc(C(=O)NCc4ccccn4)n3C)C2)c1` [NCGC00430584-01] the figure was 15 µM. For `O=C(c1nnc(COc2ccc(OC(F)(F)F)cc2)n1-c1ccccc1)N1CCC[C@@H]1C(c1ccccc1)c1ccccc1` [NCGC00415795-01], the half-maximal activity concentration (AC50) was 8.41 µM. Same read-out and setting: with `Cc1ccc2c(n1)N(C)[C@H](CO)CCN(Cc1ccc(C(F)(F)F)cc1)C2` [NCGC00395284-01] the figure was 15.3 µM; with `Cc1ccc(NC(=O)c2c(C)oc3ccc(O)c(CN4CCCCCC4)c23)cc1` [NCGC00115683-01], 2.11 µM; with `CC(Oc1ccc(F)cc1)C(=O)Nc1cc(C(F)(F)F)ccc1-n1cncn1` (stereo not drawn) [MLS001160637-01], 1.68 µM. Same read-out and setting: with `COCc1ccc2c(c1)c(OC(C)(C)C(=O)N1CCOCC1)nn2Cc1cccc(OC)c1` [NCGC00419580-01] the figure was 8.41 µM; with `CCOC(=O)N1CCC(NC(=O)c2ccc3c(c2)N(Cc2ccccc2)C(=O)c2ccccc2[S+]3[O-])CC1` (stereo not drawn) [NCGC00109348-01], 13.3 µM; with `O=C(c1nnc(CN2CCC(F)(F)CC2)n1-c1cccnc1)N1CCC[C@@H]1C(c1ccccc1)c1ccccc1` [NCGC00415758-01], 15 µM.

In the case of `COc1ccc(CCN(C)C(=O)CC(c2cccc(F)c2)c2cn(C)c3ccccc23)cc1OC` (stereo not drawn) [NCGC00473446-01], the AC50 was 8.41 µM. Still for that read-out and setting: as for `O=C(NCCN1CCCC1)C1CN([S+](=O)([O-])c2cccs2)CC12CCCCC2` (stereo not drawn) [NCGC00439935-01], the figure is 13.3 µM. Turning to `Cc1ccc([S+](=O)([O-])N2CCC3(CCN(Cc4cccs4)c4ccccc4O3)CC2)cc1` [NCGC00478057-01], the AC50 stood at 18.8 µM. Turning to `CCC1(N2CCN(C)CC2)CCN([S+](=O)([O-])c2ccccc2)C1` (stereo not drawn) [NCGC00472095-01], the half-maximal activity concentration (AC50) was found to be 6.68 µM.

Regarding `COc1cccc(NC(=O)Cn2cccc2-c2nc(-c3ccc(OC)c(F)c3)no2)c1` [NCGC00445448-01], the concentration at half-maximal activity (AC50) is 6.68 µM. Take `CCn1ccc2ccc(CN3CCCC(O)(CN4CCCC4)C3)cc21` (stereo not drawn) [NCGC00441341-01]: the AC50 amounted to 7.5 µM.

Consider `COc1ccc(Nc2cc(C)nc3nc(C)nn23)cc1Cl` [MLS000116613-01], for which the half-maximal activity concentration (AC50) stood at 16.8 µM.

For `COC(=O)C1=C(C)N(c2ccc(OC)cc2)C(C)=C(C(=O)OC)C1c1ccccc1` [MLS000780021-01], the AC50 was 9.44 µM. In the case of `Cc1ccc(CN2COc3ccc4c(-c5ccccc5)cc(=O)oc4c3C2)cc1` [NCGC00116312-01], the AC50 was 0.841 µM.

Take `COC[C@H]1CCCN1[C@@H]1[C@H](O)[C@H](CO)O[C@@H]1CN(Cc1cccc(Cl)c1)Cc1cccc(Cl)c1` [NCGC00391669-01]: the half-maximal activity concentration (AC50) worked out at 10.6 µM. Still for that read-out and setting: with `COc1ccc(-n2nc(C(=O)NCC(=O)N3CCN(c4ccccc4OC)CC3)c3ccccc3c2=O)cc1OC` [MLS000936245-01] the figure was 6.68 µM; with `CCOC(=O)c1c(CSC(=N)N)n(-c2ccc(C)cc2)c2cc(Br)c(OC(C)=O)cc12` [MLS001304955-01], 5.96 µM; with `CCCCOc1ccc(NC2=NC(N)=NC3(CCCCC3)N2)cc1` [MLS000109806-01], 8.41 µM. On the same count and under the same terms, with `CC1CCN(C(=O)CSc2nc(-c3ccc(C(C)C)cc3)no2)CC1` [NCGC00127906-01] the figure was 1.19 µM; with `c1ccc(-c2nc(-c3ccncc3)no2)c(OC2CCN(C3CCCC3)C2)c1` (stereo not drawn) [NCGC00458106-01], 15 µM; with `O=C(c1ccccc1F)N1CCC2(CC1)COc1ccccc1CN2` [NCGC00477550-01], 4.33 µM.
